Legend:
Experiment in all cases: relative viability (nuclei count vs DMSO), 5 days (fraction); higher = more cells survive
A549 = test system: A549
In short: (§1)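 Medians of duplicate plates are given as relative viability. That measure is the nuclei count in treated wells divided by the count in vehicle wells. Counts were taken on 4× images of lung cancer cell lines in 1536-well plates, 5 days after pin-tool dosing the day after seeding with one drug alone or a fixed anchor-drug dose plus five library-drug doses (not always all listed) in √10 steps.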

COR-L 105 = test system: COR-L 105
In short: as §1

Calu-6 = test system: Calu-6
In short: as §1

EBC-1 = test system: EBC-1
In short: as §1

IA-LM = test system: IA-LM
In short: as §1

LCLC-103H = test system: LCLC-103H
In short: as §1

LK-2 = test system: LK-2
In short: as §1

NCI-H1299 = test system: NCI-H1299
In short: as §1

NCI-H1355 = test system: NCI-H1355
In short: as §1

NCI-H1666 = test system: NCI-H1666
In short: as §1

NCI-H1703 = test system: NCI-H1703
In short: as §1

NCI-H520 = test system: NCI-H520
In short: as §1

CC(=O)O[C@@]12CO[C@@H]1C[C@H](O)[C@@]1(C)C(=O)[C@H](O)C3=C(C)[C@@H](OC(=O)[C@H](O)[C@@H](NC(=O)OC(C)(C)C)c4ccccc4)C[C@@](O)([C@@H](OC(=O)c4ccccc4)[C@H]21)C3(C)C [Docetaxel] + Cc1nc(NC(=O)N2CCC[C@H]2C(N)=O)sc1-c1ccnc(C(C)(C)C(F)(F)F)c1 [Alpelisib] (partner 2 µM) gave a relative viability (A549; first compound 0.0002 µM) of 0.752, a relative viability (A549; first compound 0.000632 µM) of 0.668 and a relative viability (A549; first compound 0.002 µM) of 0.0866. The relative viability (A549; first compound 0.006325 µM) was 0.0749, the relative viability (A549; first compound 0.02 µM) was 0.034 and the relative viability (COR-L 105; first compound 0.0002 µM) was 0.828. It also gave a relative viability (COR-L 105; first compound 0.000632 µM) of 0.952, a relative viability (COR-L 105; first compound 0.002 µM) of 0.475 and a relative viability (COR-L 105; first compound 0.006325 µM) of 0.522. For the same molecule, the relative viability (COR-L 105; first compound 0.02 µM) was 0.306, the relative viability (Calu-6; first compound 0.0002 µM) was 1.03 and the relative viability (Calu-6; first compound 0.000632 µM) was 0.99. For the same molecule, the relative viability (Calu-6; first compound 0.002 µM) was 0.432, the relative viability (Calu-6; first compound 0.006325 µM) was 0.147 and the relative viability (Calu-6; first compound 0.02 µM) was 0.115. It also gave a relative viability (EBC-1; first compound 0.0002 µM) of 0.797, a relative viability (EBC-1; first compound 0.000632 µM) of 0.576 and a relative viability (EBC-1; first compound 0.002 µM) of 0.275. For the same molecule, the relative viability (EBC-1; first compound 0.006325 µM) was 0.267, the relative viability (EBC-1; first compound 0.02 µM) was 0.174 and the relative viability (IA-LM; first compound 0.0002 µM) was 0.595. The relative viability (IA-LM; first compound 0.000632 µM) was 0.232, the relative viability (IA-LM; first compound 0.002 µM) was 0.116 and the relative viability (IA-LM; first compound 0.006325 µM) was 0.0821. The relative viability (IA-LM; first compound 0.02 µM) was 0.0716, the relative viability (LCLC-103H; first compound 0.0002 µM) was 0.966 and the relative viability (LCLC-103H; first compound 0.000632 µM) was 0.984. It also gave a relative viability (LCLC-103H; first compound 0.002 µM) of 0.963, a relative viability (LCLC-103H; first compound 0.006325 µM) of 0.563 and a relative viability (LCLC-103H; first compound 0.02 µM) of 0.452. It also gave a relative viability (LK-2; first compound 0.0002 µM) of 1.03, a relative viability (LK-2; first compound 0.000632 µM) of 0.685 and a relative viability (LK-2; first compound 0.002 µM) of 0.262. The relative viability (LK-2; first compound 0.006325 µM) was 0.244, the relative viability (LK-2; first compound 0.02 µM) was 0.231 and the relative viability (NCI-H1299; first compound 0.0002 µM) was 1.05. It also gave a relative viability (NCI-H1299; first compound 0.000632 µM) of 1.06, a relative viability (NCI-H1299; first compound 0.002 µM) of 1.01 and a relative viability (NCI-H1299; first compound 0.006325 µM) of 0.605. For the same molecule, the relative viability (NCI-H1299; first compound 0.02 µM) was 0.431, the relative viability (NCI-H1355; first compound 0.0002 µM) was 0.726 and the relative viability (NCI-H1355; first compound 0.000632 µM) was 0.768. It also gave a relative viability (NCI-H1355; first compound 0.002 µM) of 0.435, a relative viability (NCI-H1355; first compound 0.006325 µM) of 0.313 and a relative viability (NCI-H1355; first compound 0.02 µM) of 0.189. For the same molecule, the relative viability (NCI-H1666; first compound 0.0002 µM) was 0.803, the relative viability (NCI-H1666; first compound 0.000632 µM) was 0.406 and the relative viability (NCI-H1666; first compound 0.002 µM) was 0.352. The relative viability (NCI-H1666; first compound 0.006325 µM) was 0.276, the relative viability (NCI-H1666; first compound 0.02 µM) was 0.168 and the relative viability (NCI-H1703; first compound 0.0002 µM) was 0.406. For the same molecule, the relative viability (NCI-H1703; first compound 0.000632 µM) was 0.442, the relative viability (NCI-H1703; first compound 0.006325 µM) was 0.125 and the relative viability (NCI-H1703; first compound 0.02 µM) was 0.109. For the same molecule, the relative viability (NCI-H520; first compound 0.0002 µM) was 0.786, the relative viability (NCI-H520; first compound 0.000632 µM) was 0.95 and the relative viability (NCI-H520; first compound 0.002 µM) was 0.287. The relative viability (NCI-H520; first compound 0.006325 µM) was 0.152 and the relative viability (NCI-H520; first compound 0.02 µM) was 0.13.

Molecule Cc1sc2c(c1C)C(c1ccc(Cl)cc1)=N[C@@H](CC(=O)OC(C)(C)C)c1nnc(C)n1-2 [JQ1] + Cc1nc(NC(=O)N2CCC[C@H]2C(N)=O)sc1-c1ccnc(C(C)(C)C(F)(F)F)c1 [Alpelisib] (partner 2 µM) has a relative viability (A549; first compound 0.04 µM) of 0.785, a relative viability (A549; first compound 0.1265 µM) of 0.644 and a relative viability (A549; first compound 0.4 µM) of 0.509. The relative viability (A549; first compound 1.265 µM) was 0.401, the relative viability (A549; first compound 4 µM) was 0.262 and the relative viability (COR-L 105; first compound 0.04 µM) was 0.799. The relative viability (COR-L 105; first compound 0.1265 µM) was 0.642, the relative viability (COR-L 105; first compound 0.4 µM) was 0.421 and the relative viability (COR-L 105; first compound 1.265 µM) was 0.252. For the same molecule, the relative viability (COR-L 105; first compound 4 µM) was 0.255, the relative viability (Calu-6; first compound 0.04 µM) was 0.955 and the relative viability (Calu-6; first compound 0.1265 µM) was 0.815. It also gave a relative viability (Calu-6; first compound 0.4 µM) of 0.818, a relative viability (Calu-6; first compound 1.265 µM) of 0.589 and a relative viability (Calu-6; first compound 4 µM) of 0.4. For the same molecule, the relative viability (EBC-1; first compound 0.04 µM) was 0.885, the relative viability (EBC-1; first compound 0.1265 µM) was 0.454 and the relative viability (EBC-1; first compound 0.4 µM) was 0.226. The relative viability (EBC-1; first compound 1.265 µM) was 0.142, the relative viability (EBC-1; first compound 4 µM) was 0.149 and the relative viability (IA-LM; first compound 0.04 µM) was 0.772. For the same molecule, the relative viability (IA-LM; first compound 0.1265 µM) was 0.324, the relative viability (IA-LM; first compound 0.4 µM) was 0.143 and the relative viability (IA-LM; first compound 1.265 µM) was 0.0875. The relative viability (IA-LM; first compound 4 µM) was 0.103, the relative viability (LCLC-103H; first compound 0.04 µM) was 0.957 and the relative viability (LCLC-103H; first compound 0.1265 µM) was 0.828. For the same molecule, the relative viability (LCLC-103H; first compound 0.4 µM) was 0.751, the relative viability (LCLC-103H; first compound 1.265 µM) was 0.572 and the relative viability (LK-2; first compound 0.04 µM) was 1.05. The relative viability (LK-2; first compound 0.1265 µM) was 1.06, the relative viability (LK-2; first compound 0.4 µM) was 0.55 and the relative viability (LK-2; first compound 1.265 µM) was 0.237. The relative viability (LK-2; first compound 4 µM) was 0.16, the relative viability (NCI-H1299; first compound 0.04 µM) was 1.02 and the relative viability (NCI-H1299; first compound 0.1265 µM) was 0.947. The relative viability (NCI-H1299; first compound 0.4 µM) was 0.951, the relative viability (NCI-H1299; first compound 1.265 µM) was 0.514 and the relative viability (NCI-H1299; first compound 4 µM) was 0.353. The relative viability (NCI-H1355; first compound 0.04 µM) was 0.856, the relative viability (NCI-H1355; first compound 0.1265 µM) was 0.84 and the relative viability (NCI-H1355; first compound 0.4 µM) was 0.71. For the same molecule, the relative viability (NCI-H1355; first compound 1.265 µM) was 0.508, the relative viability (NCI-H1355; first compound 4 µM) was 0.438 and the relative viability (NCI-H1666; first compound 0.04 µM) was 0.802. It also gave a relative viability (NCI-H1666; first compound 0.1265 µM) of 1.04, a relative viability (NCI-H1666; first compound 0.4 µM) of 0.696 and a relative viability (NCI-H1666; first compound 1.265 µM) of 0.507. The relative viability (NCI-H1666; first compound 4 µM) was 0.444, the relative viability (NCI-H1703; first compound 0.04 µM) was 0.315 and the relative viability (NCI-H1703; first compound 0.1265 µM) was 0.335. It also gave a relative viability (NCI-H1703; first compound 0.4 µM) of 0.297, a relative viability (NCI-H1703; first compound 1.265 µM) of 0.26 and a relative viability (NCI-H1703; first compound 4 µM) of 0.321. For the same molecule, the relative viability (NCI-H520; first compound 0.04 µM) was 0.798, the relative viability (NCI-H520; first compound 0.1265 µM) was 0.934 and the relative viability (NCI-H520; first compound 0.4 µM) was 0.667. The relative viability (NCI-H520; first compound 1.265 µM) was 0.38 and the relative viability (NCI-H520; first compound 4 µM) was 0.268.
